Reference: article PMC5038983 (The Journal of neuroscience : the official journal of the …, 2011)

Target: T1, PME-1 (PP2A-specific methylesterase) (Homo sapiens, UniProt Q9Y570)
T1 sequence (Q9Y570 2-386): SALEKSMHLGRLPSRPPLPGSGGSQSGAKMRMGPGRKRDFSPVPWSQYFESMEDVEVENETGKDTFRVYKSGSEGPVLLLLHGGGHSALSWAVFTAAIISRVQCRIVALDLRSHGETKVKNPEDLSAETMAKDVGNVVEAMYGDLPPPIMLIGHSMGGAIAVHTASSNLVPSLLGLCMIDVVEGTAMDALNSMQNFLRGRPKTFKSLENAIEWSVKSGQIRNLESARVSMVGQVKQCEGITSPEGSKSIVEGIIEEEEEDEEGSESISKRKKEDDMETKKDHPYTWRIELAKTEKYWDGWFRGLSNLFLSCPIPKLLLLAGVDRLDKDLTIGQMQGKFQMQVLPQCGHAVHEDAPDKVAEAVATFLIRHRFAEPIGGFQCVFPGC
Type: biochemical

IC50: 3.9 µM
SMILES: CCCCCCCCCCCCCCCCCCCC(=O)NCCc1c[nH]c2ccc(O)cc12 [EHT, eicosinoyl-5-hydroxytryptamide]
